Reference: PubChem BioAssay (NCI)
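GI50 = concentration required for 50% inhibition of growth. The concentration for full growth arrest is given as TGI.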

How the values were obtained:
Test in all cases: DTP human tumour cell line panel, 384-well format
786-0 renal = test system: 786-0 renal
A498 renal = test system: A498 renal
A549 NSCLC = test system: A549 NSCLC
ACHN renal = test system: ACHN renal
BT-549 breast = test system: BT-549 breast
CAKI-1 renal = test system: CAKI-1 renal
CCRF-CEM leukemia = test system: CCRF-CEM leukemia
COLO 205 colon = test system: COLO 205 colon
DU-145 prostate = test system: DU-145 prostate
HCC-2998 colon = test system: HCC-2998 colon
HCT-116 colon = test system: HCT-116 colon
HCT-15 colon = test system: HCT-15 colon
HL-60(TB) leukemia = test system: HL-60(TB) leukemia
HOP-62 NSCLC = test system: HOP-62 NSCLC
HOP-92 NSCLC = test system: HOP-92 NSCLC
HT29 colon = test system: HT29 colon
IGROV1 ovarian = test system: IGROV1 ovarian
K-562 leukemia = test system: K-562 leukemia
KM12 colon = test system: KM12 colon
LOX IMVI melanoma = test system: LOX IMVI melanoma
M14 melanoma = test system: M14 melanoma
MALME-3M melanoma = test system: MALME-3M melanoma
MCF7 breast = test system: MCF7 breast
MDA-MB-231 breast = test system: MDA-MB-231 breast
MDA-MB-435 melanoma = test system: MDA-MB-435 melanoma
MDA-MB-468 breast = test system: MDA-MB-468 breast
MOLT-4 leukemia = test system: MOLT-4 leukemia
NCI-H226 lung = test system: NCI-H226 lung
NCI-H23 lung = test system: NCI-H23 lung
NCI-H322M lung = test system: NCI-H322M lung
NCI-H460 NSCLC = test system: NCI-H460 NSCLC
NCI-H522 lung = test system: NCI-H522 lung
NCI/ADR-RES ovarian = test system: NCI/ADR-RES ovarian
OVCAR-3 ovarian = test system: OVCAR-3 ovarian
OVCAR-4 ovarian = test system: OVCAR-4 ovarian
OVCAR-5 ovarian = test system: OVCAR-5 ovarian
OVCAR-8 ovarian = test system: OVCAR-8 ovarian
PC-3 prostate = test system: PC-3 prostate
RPMI-8226 leukemia = test system: RPMI-8226 leukemia
RXF 393 renal = test system: RXF 393 renal
SF-268 CNS = test system: SF-268 CNS
SF-295 CNS = test system: SF-295 CNS
SF-539 CNS = test system: SF-539 CNS
SK-MEL-2 melanoma = test system: SK-MEL-2 melanoma
SK-MEL-28 melanoma = test system: SK-MEL-28 melanoma
SK-MEL-5 melanoma = test system: SK-MEL-5 melanoma
SK-OV-3 ovarian = test system: SK-OV-3 ovarian
SN12C renal = test system: SN12C renal
SNB-19 CNS = test system: SNB-19 CNS
SR leukemia = test system: SR leukemia
SW-620 colon = test system: SW-620 colon
T-47D breast = test system: T-47D breast
TK-10 renal = test system: TK-10 renal
U251 glioblastoma = test system: U251 glioblastoma
UACC-257 melanoma = test system: UACC-257 melanoma
UACC-62 melanoma = test system: UACC-62 melanoma
UO-31 renal = test system: UO-31 renal

SMILES: Cc1c(COc2cc(OCc3cccc(C#N)c3)c(CN3C[C@H](O)C[C@@H]3C(=O)O)cc2Cl)cccc1-c1ccc2c(c1)OCCO2
- GI50 ([…]-0 renal): 3.82 µM
- TGI (786-0 renal): 13.7 µM
- GI50 (A498 renal): 3.27 µM
- TGI (A498 renal): 11.7 µM
- GI50 (A549 NSCLC): 10.6 µM
- TGI (A549 NSCLC): 22.5 µM
- GI50 (ACHN renal): 10.4 µM
- TGI (ACHN renal): 22.3 µM
- GI50 (BT-549 breast): 3.4 µM
- TGI (BT-549 breast): 12 µM
- GI50 (CAKI-1 renal): 6.69 µM
- TGI (CAKI-1 renal): 18.8 µM
- GI50 (CCRF-CEM leukemia): 1.81 µM
- TGI (CCRF-CEM leukemia): 3.26 µM
- GI50 (COLO 205 colon): 4.51 µM
- TGI (COLO 205 colon): 14.6 µM
- GI50 (DU-145 prostate): 7.96 µM
- TGI (DU-145 prostate): 20.5 µM
- GI50 (HCC-2998 colon): 1.47 µM
- TGI (HCC-2998 colon): 3.59 µM
- GI50 (HCT-116 colon): 2.81 µM
- TGI (HCT-116 colon): 7.43 µM
- GI50 (HCT-15 colon): 4.4 µM
- TGI (HCT-15 colon): 14.8 µM
- GI50 (HL-60(TB) leukemia): 2.1 µM
- TGI (HL-60(TB) leukemia): 3.54 µM
- GI50 (HOP-62 NSCLC): 3.97 µM
- TGI (HOP-62 NSCLC): 15.4 µM
- GI50 (HOP-92 NSCLC): 2.4 µM
- TGI (HOP-92 NSCLC): 6 µM
- GI50 (HT29 colon): 2.42 µM
- TGI (HT29 colon): 5.77 µM
- GI50 (IGROV1 ovarian): 3.93 µM
- TGI (IGROV1 ovarian): 14.2 µM
- GI50 (K-562 leukemia): 3.46 µM
- TGI (K-562 leukemia): 12.1 µM
- GI50 (KM12 colon): 3.38 µM
- TGI (KM12 colon): 10.9 µM
- GI50 (LOX IMVI melanoma): 2.68 µM
- TGI (LOX IMVI melanoma): 6.63 µM
- GI50 (M14 melanoma): 3.64 µM
- TGI (M14 melanoma): 11.6 µM
- GI50 (MALME-3M melanoma): 5.72 µM
- TGI (MALME-3M melanoma): 17.5 µM
- GI50 (MCF7 breast): 2.34 µM
- TGI (MCF7 breast): 6.63 µM
- GI50 (MDA-MB-231 breast): 3.23 µM
- TGI (MDA-MB-231 breast): 9.47 µM
- GI50 (MDA-MB-435 melanoma): 4.35 µM
- TGI (MDA-MB-435 melanoma): 14.2 µM
- GI50 (MDA-MB-468 breast): 2.7 µM
- TGI (MDA-MB-468 breast): 6.92 µM
- GI50 (MOLT-4 leukemia): 1.77 µM
- TGI (MOLT-4 leukemia): 3.16 µM
- GI50 (NCI-H226 lung): 2.6 µM
- TGI (NCI-H226 lung): 7.19 µM
- GI50 (NCI-H23 lung): 10.4 µM
- TGI (NCI-H23 lung): 22.2 µM
- GI50 (NCI-H322M lung): 7.65 µM
- TGI (NCI-H322M lung): 20.2 µM
- GI50 (NCI-H460 NSCLC): 3.45 µM
- TGI (NCI-H460 NSCLC): 12.4 µM
- GI50 (NCI-H522 lung): 2.73 µM
- TGI (NCI-H522 lung): 9.61 µM
- GI50 (NCI/ADR-RES ovarian): 77.7 µM
- TGI (NCI/ADR-RES ovarian): > 100 µM
- GI50 (OVCAR-3 ovarian): 2.37 µM
- TGI (OVCAR-3 ovarian): 6.1 µM
- GI50 (OVCAR-4 ovarian): 4.03 µM
- TGI (OVCAR-4 ovarian): 16 µM
- GI50 (OVCAR-5 ovarian): 15 µM
- TGI (OVCAR-5 ovarian): 28.2 µM
- GI50 (OVCAR-8 ovarian): 4.21 µM
- TGI (OVCAR-8 ovarian): 15.5 µM
- GI50 (PC-3 prostate): 3.58 µM
- TGI (PC-3 prostate): 10.3 µM
- GI50 (RPMI-8226 leukemia): 1.67 µM
- TGI (RPMI-8226 leukemia): 3.04 µM
- GI50 (RXF 393 renal): 1.41 µM
- TGI (RXF 393 renal): 3.5 µM
- GI50 (SF-268 CNS): 3.98 µM
- TGI (SF-268 CNS): 14.5 µM
- GI50 (SF-295 CNS): 3.09 µM
- TGI (SF-295 CNS): 8.92 µM
- GI50 (SF-539 CNS): 3.25 µM
- TGI (SF-539 CNS): 11.6 µM
- GI50 (SK-MEL-2 melanoma): 1.93 µM
- TGI (SK-MEL-2 melanoma): 3.76 µM
- GI50 (SK-MEL-28 melanoma): 2.71 µM
- TGI (SK-MEL-28 melanoma): 7.55 µM
- GI50 (SK-MEL-5 melanoma): 1.72 µM
- TGI (SK-MEL-5 melanoma): 4.31 µM
- GI50 (SK-OV-3 ovarian): 5.17 µM
- TGI (SK-OV-3 ovarian): 16.3 µM
- GI50 (SN12C renal): 5.41 µM
- TGI (SN12C renal): 16.4 µM
- GI50 (SNB-19 CNS): 4.11 µM
- TGI (SNB-19 CNS): 13.5 µM
- GI50 (SR leukemia): 1.69 µM
- TGI (SR leukemia): 3.06 µM
- GI50 (SW-620 colon): 5.44 µM
- TGI (SW-620 colon): 17 µM
- GI50 (T-47D breast): 2.97 µM
- TGI (T-47D breast): 12.9 µM
- GI50 (TK-10 renal): 3.11 µM
- TGI (TK-10 renal): 9.29 µM
- GI50 (U251 glioblastoma): 3.38 µM
- TGI (U251 glioblastoma): 10.6 µM
- GI50 (UACC-257 melanoma): 2.63 µM
- TGI (UACC-257 melanoma): 8.02 µM
- GI50 (UACC-62 melanoma): 2.3 µM
- TGI (UACC-62 melanoma): 5.05 µM
- GI50 (UO-31 renal): 1.93 µM
- TGI (UO-31 renal): 3.79 µM
